ChEMBL document CHEMBL3507680, “University of Dundee, Gates Library screen for HepG2 cell viability”

Experiment: Human HepG2 cell viability assay in 384 well format
Type: toxicity, cell-based
Parameters: dose 125 nL, time 70.5 hour; cytotoxicity at 70.5 h: concentration not given beside the values
Settings: HepG2 cells, read-out: Inhibition

Row | Structure (SMILES) | cytotoxicity at 70.5 h [%]
1 | Cc1csc(C(C)(C)NCc2ncc(-c3ccccc3)o2)n1 | -7.99
2 | COCCOCC(=O)NCc1ccc(N(C)C)nc1 | -5.23
3 | COCCNC(=O)NC1CCN(c2cnn(C)c2)C1 (stereo not drawn) | -4.09
4 | Cc1cc(C)cc(CNC(C)c2c(C)nn(C)c2C)c1 (stereo not drawn) | -13.1
5 | COCCSCC(=O)NCc1ccnc(N(C)C)c1 | -8.31
6 | Cc1nccn1-c1ccc(C(C)NCCc2ccccn2)cc1 (stereo not drawn) | 0.00833
7 | COc1ccc(S(=O)(=O)C(F)(F)F)cc1NC(=O)CSC | -1.98
8 | COCC(=O)Nc1cc(S(=O)(=O)C(F)(F)F)ccc1OC | 2.14
9 | CN(Cc1c(F)cccc1Cl)C(=O)Nc1cnn(CC(N)=O)c1 | 6.9
10 | O=C(Cc1ccc(F)cc1)NS(=O)(=O)c1ccc(F)c(F)c1 | -2.89
11 | COc1ccc(NCc2c[nH]nc2-c2cccnc2)cc1 | 8.67
12 | COc1ccsc1C(=O)NCCNc1ccccc1 | -2.66
13 | COc1cc(C)sc1C(=O)NCCNc1ccccc1 | 11.2
14 | Cc1cccc(CC(=O)NS(=O)(=O)c2ccc(F)c(F)c2)c1 | 8.16
15 | Cc1nccn1-c1ccc(C(C)NCc2cccn2C)cc1 (stereo not drawn) | -4.2
16 | O=C1CCC(=O)N1CCN1CCN(c2cc(F)ccc2F)CC1 | -3.59
17 | CCCS(=O)(=O)CCN1CCN(c2cc(F)ccc2F)CC1 | 2.83
18 | Cn1cc(C#N)cc1C(=O)Nc1ccc(CN2CCOCC2)cn1 | -2.71
19 | Cn1cc(C(=O)Nc2ccc(CN3CCOCC3)cn2)cn1 | -4.82
20 | COc1cccc(CCCNC(=O)N2CCC(O)(C(F)(F)F)C2)c1 (stereo not drawn) | -2.72
21 | c1csc(CCNC2CCc3ncnn3C2)c1 (stereo not drawn) | 0.839
22 | COc1cccc(CC(=O)N2CCC(O)(C(F)(F)F)C2)c1 (stereo not drawn) | -4.06
23 | Cc1csc(CN(C)C(C)C(=O)N2CCc3ccccc3C2)n1 (stereo not drawn) | 11.5
24 | O=C(CN1CCCC1c1nc(Cc2ccc(F)cc2)no1)NC1CC1 (stereo not drawn) | 0.125

Row | Structure (SMILES) | cytotoxicity at 70.5 h [%]
25 | O=C(CNC1CCc2ncnn2C1)N(Cc1cccs1)C1CC1 (stereo not drawn) | 0.341
26 | c1ccc(-n2cncn2)c(CNCCn2cccn2)c1 | 10.2
27 | COCCCSc1ccc(NCc2scnc2C)cc1 | -0.225
28 | CC(C)(CNC(=O)C1CCCCN1S(C)(=O)=O)N1CCOCC1 (stereo not drawn) | 38
29 | O=c1c2sccc2ncn1CC(O)CN1CCOCC1 (stereo not drawn) | -10.3
30 | CC(C)c1ccc(OCCNC(=O)c2ccoc2)cc1 | 23.9
31 | CC(C)c1noc(CNc2cccc(-c3nnnn3C)c2)n1 | -8.75
32 | CCC(=O)N1CCN(c2ccc(C(=O)OC)cc2)CC1C (stereo not drawn) | -0.474
33 | COCCNC(=O)CCNC(=O)c1ccc(N2CCC(C)=N2)cc1 | -16
34 | Cc1cc(CN2CCN(C(=O)C3(C#N)CCCC3)CC2)on1 | 21
35 | CC1=NN(c2ccc(C(=O)OCCNC(=O)c3ccncc3)cc2)CC1 | -2.48
36 | CC(NS(C)(=O)=O)c1nc(-c2ccc(Br)cc2)no1 (stereo not drawn) | -5.32
37 | CCC(C)(CNC(=O)c1ccon1)NC(=O)c1ccon1 (stereo not drawn) | -8.49
38 | Cc1cc(NC(=O)N2CCCC2CN2CCOCC2)nn1C (stereo not drawn) | -10.1
39 | N#Cc1ccc(C(=O)O)nc1/C=C/c1cccc(F)c1 | -7.55
40 | N#Cc1ccc(C(=O)O)nc1/C=C/c1cccc(Br)c1 | -4.7
41 | CCN(CC)c1ncc(CNC2CCc3ncnn3C2)s1 (stereo not drawn) | -5.42
42 | O=C(Nc1nnc(C(F)F)s1)NC(CCO)c1cccs1 (stereo not drawn) | 32.8
43 | Cc1ccc(C(=O)Nc2ccc(N(C)C)nc2)n1C | 3.75
44 | N#Cc1cccc(OCCN2CCCC2C(=O)NC2CC2)c1 (stereo not drawn) | 4.05
45 | Cc1cc(C)n(-c2ccccc2NC(=O)NCCCN(C)S(C)(=O)=O)n1 | 5.58
46 | N#Cc1ccc(CN2C(=O)c3ccccc3CS2(=O)=O)cc1 | -1.6
47 | O=C(NCc1cc2ccccc2[nH]1)C1CCCN(C(=O)N2CCCC2)C1 (stereo not drawn) | -3.92
48 | CCc1nc2n(n1)CC(Nc1ccnc(-c3ccccc3)n1)CC2 (stereo not drawn) | -3.97

Row | Structure (SMILES) | cytotoxicity at 70.5 h [%]
49 | Cc1nc2n(n1)CC(Nc1nc(-c3ccccc3)no1)CC2 (stereo not drawn) | -0.185
50 | CC(C(=O)Nc1nccs1)N1CCc2nn(C)c(=O)cc2C1 (stereo not drawn) | 20.7
51 | CCn1ncc2c1CCCC2NCc1ccc2c(c1)OCCO2 (stereo not drawn) | 4.09
52 | CC(C)(C)n1ncc2c1CCCC2NCc1cccc(C(N)=O)c1 (stereo not drawn) | 3.6
53 | CC(C)(C)n1ncc2c1CCCC2NCc1ccc2c(c1)OCCO2 (stereo not drawn) | 29.2
54 | CC(C)(C)OC(=O)N1CCC(C(=O)NCc2cc3ccccc3[nH]2)C1 (stereo not drawn) | -2.83
55 | Fc1ccc2c(C3=CCN(Cc4nnc(C5CCC5)o4)CC3)c[nH]c2c1 | 2.23
56 | COc1ccc(C)cc1C(=O)NC1(C#N)CCOCC1 | -2.79
57 | Cc1noc(CN(Cc2cccc(C#N)c2)Cc2ccco2)n1 | 0.0593
58 | Cc1nc(C(=O)N(C)CC2CC2)nn1-c1ccccc1C(C)C | 36
59 | CC(O)(CNS(=O)(=O)Cc1ccon1)c1ccsc1 (stereo not drawn) | 0.988
60 | CCN(C)S(=O)(=O)NCC(C)(O)c1ccsc1 (stereo not drawn) | -0.398
61 | CC(C)(C)n1ncc2c1CCCC2NCc1ccc2ncccc2c1 (stereo not drawn) | -4.24
62 | CC(C)(C)c1noc(CCC(=O)N2CCN(Cc3ccco3)CC2)n1 | -0.998
63 | COC(=O)CCNC(=O)c1cccc(C(=O)N(C)c2ccccc2)c1 | 31.4
64 | Cc1nc(CNC2CCCN(c3cccnn3)C2)no1 (stereo not drawn) | 22
65 | COC(=O)CNC(=O)c1cccc(C(=O)N(C)c2ccccc2)c1 | 30.5
66 | c1cncc(-c2noc(CNC3CCCN(c4cccnn4)C3)n2)c1 (stereo not drawn) | 24.9
67 | OC1CCCN(Cc2ccc(F)c3cccnc23)C1 (stereo not drawn) | -0.871
68 | CC(C)(C)c1ccc(C2(C(=O)NCCS(C)(=O)=O)CC2)cc1 | -6.58
69 | Cc1nc2c(c(C)c1CC(=O)NC(C)c1ccccc1)c(=O)[nH]n2C (stereo not drawn) | -2.23
70 | Cc1cc(CNC(=O)Nc2cccc(COCCOC(C)C)c2)no1 | -0.772
71 | Cc1ccc(-c2ccc(C(=O)NCCS(N)(=O)=O)c(F)c2)cc1 | -3.69
72 | Cc1ccc(CN(C)C(=O)CN2CCCCC2Cn2cncn2)cc1 (stereo not drawn) | 22.7

Row | Structure (SMILES) | cytotoxicity at 70.5 h [%]
73 | Cc1cc(CNC(=O)NC(C)c2ccccc2)no1 (stereo not drawn) | 0.144
74 | Cc1ccc(-c2ccc(C(=O)NCCC(=O)N(C)C)c(F)c2)cc1 | -6.22
75 | CCc1nc(CN2CCCN(c3ncnc4sccc34)CC2)no1 | 16.3
76 | CCCNC(=O)CNc1ccc2c(c1)N(C(=O)OC(C)(C)C)CCC2 | 2.81
77 | CN(Cc1cccs1)C(=O)CN1CCCCC1Cn1cncn1 (stereo not drawn) | 23.2
78 | CNc1nc(CNC(=O)Nc2cccc(COCCOC(C)C)c2)cs1 | 2.29
79 | Cc1ncccc1C(=O)NC1(c2cccc(F)c2)CCOCC1 | -3.77
80 | CC(C)C1CN(C(=O)c2ccc3nccnc3c2)CCS1 (stereo not drawn) | -7.38
81 | CC(C)OCCOCc1cccc(NC(=O)NCc2cnn(C)c2)c1 | -0.106
82 | Cc1ccccc1CN(C)C(=O)CN1CCCCC1Cn1cncn1 (stereo not drawn) | -7.31
83 | COc1cc(NC(=O)c2ccc(F)cc2Cl)c(C(=O)N(C)C)cc1OC | -8.85
84 | COc1cc(NC(=O)c2cc(Cl)ccc2F)c(C(=O)N(C)C)cc1OC | -15.4
85 | CC(CN1CCOCC1)NC(=O)NCc1ccoc1 (stereo not drawn) | 4.07
86 | COc1ccc(-c2nnc(SC(C)C(=O)NC3CCCC3)[nH]2)c(OC)c1 (stereo not drawn) | 42.2
87 | COc1ccc(-c2nnc(SC(C)C(N)=O)[nH]2)c(OC)c1 (stereo not drawn) | -8.05
88 | CS(=O)(=O)N1CCN(Cc2csc(-c3ncccn3)n2)CC1 | 15.5
89 | Cc1nc(N2CCCC(N3CCCC3)C2)c2cnn(C)c2n1 (stereo not drawn) | -5.42
90 | Cc1cccc(-c2c[nH]c(C3CCCN3C(=O)C3CCOCC3)n2)c1 (stereo not drawn) | -10.3
91 | COc1c(Br)cccc1CCNC(=O)c1ccon1 | -10.8
92 | FC(F)(F)c1ccnc(N2CCCCCC2)c1 | -10.6
93 | CC1CN(C(=O)c2ccnc(OCCN(C)C)c2)c2ccccc21 (stereo not drawn) | -14.8
94 | CCOC(C(=O)N1CCn2c(CC)nnc2C1)c1ccccc1 (stereo not drawn) | -11.9
95 | Cc1ccc(CNCc2cccc3cccnc23)c(OC2CCOC2)c1 (stereo not drawn) | 12.2
96 | CC(=O)N1CCC(NC(=O)N2CCCC2c2ccsc2)CC1 (stereo not drawn) | 6.84

Row | Structure (SMILES) | cytotoxicity at 70.5 h [%]
97 | O=C(Cc1cc2c(cc1Br)OCCO2)NC1CCS(=O)(=O)C1 (stereo not drawn) | 7.44
98 | CN(C)CCN(Cc1ccccn1)C(=O)Nc1cccc(F)c1 | -9.47
99 | CN(Cc1ccncc1)C(=O)c1ccc2c(c1O)OC(C)(C)C2 | -5.32
100 | CN(CCNC(=O)N1CCCC1)C(=O)OC(C)(C)C | -11.5
101 | N#CCCN(Cc1ccccn1)C(=O)Nc1cccc(F)c1 | -6.04
102 | CS(=O)(=O)CCCOc1cccc(-n2ccnc2)c1 | -2.41
103 | CN(C)S(=O)(=O)CCCOc1cccc(-n2ccnc2)c1 | -3.93
104 | Nc1nccnc1C(=O)N(Cc1ccccc1O)CC1CCCO1 (stereo not drawn) | -13.9
105 | Cc1nnc(CN(C)C(=O)C(CC(C)C)N2CCCCC2=O)n1C (stereo not drawn) | -5.01
106 | Cc1oc(-c2ccccc2)nc1C(=O)NC1=NCCS1 | -0.24
107 | Cc1ccc2c(c1)N(C(=O)C1CCCOC1)CCC2 (stereo not drawn) | -4.9
108 | Cc1ccc(CNCc2cccc3cn[nH]c23)c(OC2CCOC2)c1 (stereo not drawn) | 3.6
109 | Cc1nc(C(NC(=O)CC(F)(F)F)c2ccc(Cl)cc2)no1 (stereo not drawn) | -2.37
110 | COCC(=O)NC(c1ccc(Cl)cc1)c1noc(C)n1 (stereo not drawn) | -2.49
111 | O=C(NS(=O)(=O)c1cnn(-c2ccccc2F)c1)c1ccoc1 | 9.38
112 | N#CCCN(Cc1ccccn1)C(=O)Nc1cccnc1 | -7.42
113 | CCOC1CCN(C(=O)NCCN(C)C(=O)OC(C)(C)C)CC1 | -3.79
114 | Cc1ccc(NCc2cccc3cn[nH]c23)cc1OC1CCOC1 (stereo not drawn) | -0.654
115 | C[S+]([O-])c1cccc(NC(=O)N(CCC#N)Cc2ccccn2)c1 (stereo not drawn) | -12
116 | O=C(c1nccc2ccccc12)N(Cc1ccco1)CC1CCCO1 (stereo not drawn) | 9.69
117 | COC(=O)N1CCC(NC(=O)N2CCCC2c2ccsc2)CC1 (stereo not drawn) | -4.05
118 | CC1CCN(CCCNS(=O)(=O)c2cc(F)cc(F)c2)CC1 | 48.4
